Data as given in ChEMBL document CHEMBL1134948, “The antimicrobial natural product chuangxinmycin and some synthetic analogues are potent and selective inhibitors of bacterial tryptophanyl tRNA synthetase” (Bioorg Med Chem Lett, 2002).
Values after ≈ are worked out from the molar mass of the structure shown. Values joined by “and” are separate entries in the source; they are usually repeats but may differ in a detail not shown here. Equal entries are not always repeated. One block for each compound: values may come before it. Active and inactive are the calls of the source. The calls are words filed in the database; no cut-off is given here.

How the values were obtained:
Moraxella catarrhalis [1] = assay: Minimum inhibitory concentration against Moraxella catarrhalis 1502; format: functional
Haemophilus influenzae [2] = assay: Minimum inhibitory concentration against Haemophilus influenzae Q1; format: functional
[3] = Compound was tested for inhibitory activity against tryptophanyl tRNA synthetase in Staphylococcus aureus; format: nucleic-acid assay
Staphylococcus aureus [4] = assay: Minimum inhibitory concentration against Staphylococcus aureus oxford; format: functional
Nucleic Acid [5] = assay: Compound was tested for inhibitory activity against tryptophanyl tRNA synthetase in Staphylococcus aureus Oxford; No significant inhibition up to 20 uM concentration; format: nucleic-acid assay
Nucleic Acid [6] = assay: Binding affinity against Tryptophanyl tRNA synthetase was determined; format: nucleic-acid assay, Staphylococcus aureus
Nucleic Acid [7] = assay: Compound was tested for inhibitory activity against tryptophanyl tRNA synthetase in Staphylococcus aureus; NI means no inhibition uM; format: nucleic-acid assay
Moraxella catarrhalis [8] = assay: Minimum inhibitory concentration against Moraxella catarrhalis 1502 at a concentration of 32 ug/mL; format: functional, organism-based
Staphylococcus aureus [9] = assay: Minimum inhibitory concentration against Staphylococcus aureus Oxford at a concentration of 32 ug/mL; format: functional, organism-based
Haemophilus influenzae [10] = assay: Minimum inhibitory concentration against Haemophilus influenzae Q1 at a concentration of 32 ug/mL; format: functional, organism-based

SMILES: CC1c2c[nH]c3cccc(c23)SC1C(N)=O (stereo unspecified)
Activity (Nucleic Acid [5]): No significant inhibition up to 20 uM concentration

SMILES: CC1c2c[nH]c3cccc(c23)SC1C=O (stereo unspecified)
IC50 [3]: 90 nM

SMILES: C[C@H]1c2c[nH]c3cccc(c23)S[C@H]1C(=O)O [CHUANGXINMYCIN]
IC50 [3]: 30 nM and 200 nM
Ki (Nucleic Acid [6]): 20 nM

SMILES: COC(=O)C1Sc2cccc3[nH]cc(c23)C1C (stereo unspecified)
Activity (Nucleic Acid [5]): No significant inhibition up to 20 uM concentration

SMILES: CC1c2c[nH]c3cccc(c23)SC1C#N (stereo unspecified)
IC50 [3]: 1100 nM

Second part, the compound after the results:

MIC (Moraxella catarrhalis [1]): 16 µg/mL (≈ 69.2 µM)
MIC (Haemophilus influenzae [2]): 16 µg/mL (≈ 69.2 µM)
IC50 [3]: 230 nM
MIC (Staphylococcus aureus [4]): 4 µg/mL (≈ 17.3 µM)
SMILES: O=C1OC[C@H]2c3c[nH]c4cccc(c34)S[C@@H]12

IC50 (Nucleic Acid [7]): No inhibition
SMILES: CC1c2c[nH]c3cccc(c23)SC1C(=O)NO (stereo unspecified)

IC50 (Nucleic Acid [7]): No inhibition
SMILES: CC1c2c[nH]c3cccc(c23)SC1c1nnn[nH]1 (stereo unspecified)

MIC (Moraxella catarrhalis [8]): inactive
IC50 (Nucleic Acid [7]): No inhibition
MIC (Staphylococcus aureus [9]): inactive
MIC (Haemophilus influenzae [10]): inactive
SMILES: O=C([O-])[C@@H]1Sc2cccc3[nH]cc(c23)[C@@H]1CO.[Na+]
